Test system: MAP kinase
Test: Phosphorylated MAP kinase amount in cortex of frontal lobe and hippocampus of stressed mice
Format: in vivo
Settings: 24 hours after 3 weeks of stress with 20, 100, 500 μg/kg, at least one administration example
Description: After 24 hours from completion of stress for 3 weeks in the same method as described in Example 2, mice administered with the compound 8 in doses of 0, 20, 100 and 500 μg/kg respectively at the same time as stress and non-stressed mice administered with only a phosphoric acid buffer containing 0.1% DMSO were sacrificed and the cortexes of frontal lobes and hippocampi were excised respectively, and thereto were added RIPA buffers in 19 times of an amount of each wet weight.
Then, sonication was performed by an ultrasonic grinder until tissues cannot be seen, centrifuged at 12000 rpm for 15 minutes, and the supernatant was recovered to form a tissue protein extraction solution. The protein concentration of the extraction solution was measured using a BCA Protein Assay Kit (TAKARA BIO INC.), each of extraction solutions containing 3 μg for a MAP kinase and 5 μg for a phosphorylated MAP kinase was added with a ⅓ amount of a sample buffer for electrophoresis at 4 times of a concentration, and a 1/10 amount of 2-mercaptoethanol and thermally treated at 95° C. for 5 minutes and subjected to electrophoresis with a 10% SDS polyacrylic amide gel. […]

CCCCCCC/C=C/C(=O)OCC [Compound 8, trans-2-decenoic acid ethyl ester]
phosphorylated MAP kinase amount compared to control (0 μg/kg): significantly increased

From US8557864B2, “Agent having neurotrophic factor-like activity” (Nagoya Industrial Science Research Institute, priority 2007, dated 2013)
